Reference: patent publication US20160193179A1, “Treatment of Cardiovascular Risk in Diabetic Patients” (EVOLVA SA, priority 2012, published 2016)

How the values were obtained:
[1] = system: human coronary artery smooth muscle cells; test: Human coronary artery smooth muscle cell proliferation (WST-1); type: cell-based
Method: Human coronary artery SMC is cultured in SmGM2 kit medium. At 80% confluence, the SMCs are trypsinized and resuspended in either DMEM supplemented with 2% FCS (“low serum media”), or in SmGM2 kit medium containing 5% FCS, 2 ng/ml FGF, 0.5 ng/ml EGF, 5 μg/ml insulin (“growth factor media”). Subsequently, 5000 cells in 200 μL are added to each well in a 96-well plate and left to adhere overnight. Either vehicle or Compound 3 (50 nM, 500 nM, 5 μM) is added to the wells 1 h before U 46619 at different concentrations (0.1 nM to 10 μM) and incubated for another 48 h. All experiments are repeated 3-5 times for each experimental condition.
Cell proliferation is evaluated using WST-1 reagent according to the manufacturer's instructions. In brief, after replacement of phenol red containing media by 200 μL transparent serum-supplemented DMEM, 10 μL of diluted WST-1 reagent is added to each well at the end of the 48 h incubation period. After 1 h incubation at 37° C., the absorbance of the formazan dye formed is measured at 440 nm using a microplate reader.
All results are expressed as mean±SE. Statistically significant differences are determined by a one-way analysis of variances, followed by Holm-Sidak post hoc test, for multiple comparisons, using Sigma Stat software. A P value of less than 0.05 is considered significant.

[2] = system: platelet aggregation in PRP of type-2 diabetic patients; test: Platelet aggregation in citrate-anticoagulated PRP, light transmission aggregometry (LTA); type: cell-based, human; conditions: for ADP 5 late platelet aggregation (mean ± SD) / ADP 5 max platelet aggregation (mean ± SD): ADP 5 μM; for ADP 5 late platelet aggregation (mean ± SD) / ADP 20 late platelet aggregation (mean ± SD) / U-46619 late platelet aggregation (mean ± SD) / AA late platelet aggregation (mean ± SD) / COLL late platelet aggregation (mean ± SD): late aggregation at 6 minutes; for ADP 5 late platelet aggregation (mean ± SD) / ADP 5 max platelet aggregation (mean ± SD) / ADP 20 late platelet aggregation (mean ± SD) / ADP 20 max platelet aggregation (mean ± SD) / U-46619 late platelet aggregation (mean ± SD) / U-46619 max platelet aggregation (mean ± SD) / AA late platelet aggregation (mean ± SD) / COLL late platelet aggregation (mean ± SD) / COLL max platelet aggregation (mean ± SD): PRP ± 100 nM Compound 3 in vitro; for ADP 5 max platelet aggregation (mean ± SD) / ADP 20 max platelet aggregation (mean ± SD) / U-46619 max platelet aggregation (mean ± SD) / AA max platelet aggregation (mean ± SD) / COLL max platelet aggregation (mean ± SD): maximal aggregation; for ADP 20 late platelet aggregation (mean ± SD) / ADP 20 max platelet aggregation (mean ± SD): ADP 20 μM; for U-46619 late platelet aggregation (mean ± SD) / U-46619 max platelet aggregation (mean ± SD): U-46619 7 uM; for AA late platelet aggregation (mean ± SD) / AA max platelet aggregation (mean ± SD): arachidonic acid 1 mM; for AA max platelet aggregation (mean ± SD): PRP ± 100 nM Compound 3 in vitro 10 min 37°C; for COLL late platelet aggregation (mean ± SD) / COLL max platelet aggregation (mean ± SD): collagen 3 ug/ml
Method: Patient population: Ten patients affected by type-2 diabetes mellitus and CAD (coronary artery disease), on chronic daily treatment with 81 mg aspirin (enteric coated acetylsalicylic acid, Cardioaspirin, Bayer, Germany) are switched to clopidogrel (75 mg/day) monotherapy for 7-10 days prior to study. Pharmacodynamic assessments are performed while on aspirin (81 mg) monotherapy and clopidogrel (75 mg) monotherapy.
Blood sampling with 19-gauge needle or larger without the use of tourniquet. The first two ml of blood sampled was discarded. The venous blood samples are drawn into tri-sodium citrate filled tubes (BD Vacutainer 0.109 M. Ref. 363048) for the LTA. All tri-sodium citrate used to anticoagulate a blood sample remains in the plasma phase since it was not taken up by platelets, erythrocytes and leukocytes. Citrate plasma concentration and the resulting free plasma Ca2+ needed for platelet aggregation is directly determined by the individual haematocrit.
Platelet-rich plasma (PRP) is prepared by centrifugation at 120×g for 10 min at room temperature. Autologous platelet-poor plasma (PPP) is prepared by centrifugation at 2300×g for 15 min at room temperature. The PRP platelet count is adjusted to 250.000/ul by the autologous PPP. Stability for the platelet aggregation test is 2 hours at room temperature. Platelet aggregation is performed using LTA [2-5]. Blood is collected in citrated tubes. Citrate concentrations are adjusted according to the individual haematocrit levels according to prior LTA studies using Evolva compound. LTA is assessed using PRP by the turbidimetric method in a 2-channel aggregometer (Chrono-Log 490 Model, Chrono-Log Corp., Havertown) according to the instructions of the manufacturer. Light transmission is adjusted to 0% with the PRP and to 100% for the PPP for each measurement. Curves are recorded for 6 minutes. Platelet aggregation is determined as the maximal percent change in light transmittance from baseline using PPP as a reference as well as late platelet aggregation at 6 minutes. Platelet agonists include U-46619 (7 uM), arachidonic acid (1 mM), collagen (3 ug/ml) and ADP (20 μM and 5 μM). Pharmacodynamic testing is performed following 10 min in vitro incubation at 37° C. of PRP with 100 nM Compound 3 and without 100 nM Compound 3 (placebo).
Total of 10 LTA analysis per patient at each time point; total 2 time points=20 assessments. Table 1 and FIG. 6B compare aspirin vs. aspirin+Compound 3, Table 2 and FIG. 7A compare clopidogrel vs. clopidigrel+Comppound 3, and Table 3 and FIG. 7B compare aspirin+Compound 3 vs. clopidogrel+Comound 3.

[3] = Bioavailability (statement); conditions: in vivo

SMILES	concentration of maximal response (cell number, WST-1) ([1]; growth factor media)	cell number assessed by WST-1 ([1]; growth factor media, U46619 0.1 nM to 10 μM, 48 h)	absorbance vs. vehicle-treated cells (WST-1) ([1]; growth factor media, U46619 at 0.1 μM and higher)	SMC proliferation ([1]; low serum media (2% FCS))	ADP 5 late platelet aggregation (mean ± SD) [2]	ADP 5 max platelet aggregation (mean ± SD) [2]	ADP 20 late platelet aggregation (mean ± SD) [2]	ADP 20 max platelet aggregation (mean ± SD) [2]	U-46619 late platelet aggregation (mean ± SD) [2]	U-46619 max platelet aggregation (mean ± SD) [2]	AA late platelet aggregation (mean ± SD) [2]	AA max platelet aggregation (mean ± SD) [2]	COLL late platelet aggregation (mean ± SD) [2]	COLL max platelet aggregation (mean ± SD) [2]	solubility (Solubility (statement))	bioavailability [3]
CCCCC[C@H](O)/C=C/[C@@H]1[C@@H](C/C=C\CCCC(=O)O)[C@H]2CO[C@@H]1C2 [Compound U46619]	1 nM	bell-shaped concentration-dependent increase	does not significantly differ	did not significantly alter	–	–	–	–	–	–	–	–	–	–	–	–
CC(=O)Oc1ccccc1C(=O)O [ASA, acetylsalicylic acid]	–	–	–	–	46.3 ± 15%	52.6 ± 12%	72 ± 6%	74.3 ± 6%	74.9 ± 4.6%	77 ± 5.2%	8.5 ± 23%	9.4 ± 22.7%	59.6 ± 17.2%	61.4 ± 17.6%	–	–
O=C(O)CC/C=C\C[C@@H]1CO[C@H](c2ccccc2Cl)O[C@@H]1c1ccccc1O (single isomer, unassigned) [Compound 2]	–	–	–	–	–	–	–	–	–	–	–	–	–	–	poor solubility	poor
COC(=O)[C@H](c1ccccc1Cl)N1CCc2sccc2C1 [CLOP, clopidogrel]	–	–	–	–	19.7 ± 21.9%	32.8 ± 17.2%	44.6 ± 18.9%	54.8 ± 13.3%	68.8 ± 13.8%	71.6 ± 11.6%	47.6 ± 28.2%	49.7 ± 28.2%	70.5 ± 10.5%	72.6 ± 10.2%	–	–
